Test results reported in PubChem BioAssay AID248 (DTP/NCI, 2004).
Where “and” joins values, the source holds several entries; their conditions need not be identical. Identical values can stand only once. Toxic doses and inconclusive results are not listed.

System: L1210 leukemia ip in BDF1 mice, survival T/C
Experiment: NCI In Vivo Anticancer Drug Screen. Data for tumor model L1210 Leukemia (intraperitoneal) in B6D2F1 (BDF1) mice
Details: endpoint: mean survival time, higher = longer survival
Outline: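 Ratio derived from survival: compound-dosed mice over vehicle-dosed mice, all bearing a transplantable tumor.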

[1] = dose: 100.0 mg/kg/injection, schedule: Q01DX009 (ip), vehicle: saline with Tween-80
[2] = dose: 100.0 mg/kg/injection, schedule: Q04DX002 (ip), vehicle: Klucel (hydroxypropylcellulose) (HPC)
[3] = dose: 200.0 mg/kg/injection, schedule: Q04DX002 (ip), vehicle: Klucel (hydroxypropylcellulose) (HPC)
[4] = dose: 400.0 mg/kg/injection, schedule: Q04DX002 (ip), vehicle: Klucel (hydroxypropylcellulose) (HPC)
[5] = dose: 50.0 mg/kg/injection, schedule: Q01DX001 (ip), vehicle: carboxymethylcellulose (CMC)
[6] = dose: 100.0 mg/kg/injection, schedule: Q04DX002 (ip), vehicle: saline with Tween-80
[7] = dose: 100.0 mg/kg/injection, schedule: Q01DX001 (ip), vehicle: saline

With Nc1ncnc(N)c1NC(=O)c1ccc(Cl)c(Cl)c1 the T/C (dose: 75.0 mg/kg/injection, schedule: Q01DX001 (ip), vehicle: saline with Tween-80) was 102 % of control, the T/C (dose: 150.0 mg/kg/injection, schedule: Q01DX001 (ip), vehicle: saline with Tween-80) was 98 % of control and the T/C (dose: 300.0 mg/kg/injection, schedule: Q01DX001 (ip), vehicle: saline with Tween-80) was 96 % of control.

For C=C1C(=O)OC2C1CCC(=C)C1CC(O)C(=C)C12 (stereo not given), the T/C (dose: 67.0 mg/kg/injection, schedule: Q01DX009 (ip), vehicle: saline with Tween-80) was 103 % of control and the T/C [1] was 105 % of control.

In the case of C=C(Br)CNC(=O)NCC(=C)Br, the T/C [1] is reported as 105 % of control, the T/C (dose: 200.0 mg/kg/injection, schedule: Q01DX009 (ip), vehicle: saline with Tween-80) is reported as 100 % of control and the T/C (dose: 400.0 mg/kg/injection, schedule: Q01DX009 (ip), vehicle: saline with Tween-80) is reported as 105 % of control.

For CCCNC(=O)Oc1ccc2ccccc2c1, the T/C (dose: 100.0 mg/kg/injection, schedule: Q01DX001 (ip), vehicle: other) was 103 % of control, the T/C (dose: 100.0 mg/kg/injection, schedule: Q01DX009 (ip), vehicle: other) was 93 % of control and 100 % of control and the T/C [2] was 95 % of control. The T/C (dose: 100.0 mg/kg/injection, schedule: Q04DX002 (ip), vehicle: other) was 100 % of control and 101 % of control, the T/C (dose: 200.0 mg/kg/injection, schedule: Q01DX001 (ip), vehicle: other) was 94 % of control and the T/C (dose: 200.0 mg/kg/injection, schedule: Q01DX009 (ip), vehicle: other) was 94 % of control and 116 % of control. For the same compound, the T/C [3] was 103 % of control, the T/C (dose: 200.0 mg/kg/injection, schedule: Q04DX002 (ip), vehicle: other) was 93 % of control and 95 % of control and the T/C (dose: 400.0 mg/kg/injection, schedule: Q01DX001 (ip), vehicle: other) was 101 % of control. For the same compound, the T/C (dose: 400.0 mg/kg/injection, schedule: Q01DX009 (ip), vehicle: other) was 93 % of control and 94 % of control, the T/C [4] was 100 % of control and the T/C (dose: 400.0 mg/kg/injection, schedule: Q04DX002 (ip), vehicle: other) was 93 % of control and 96 % of control.

CCc1cc2oc(C)c(C)c2c(N=Nc2ccccc2[N+](=O)[O-])c1O was tested, and the T/C [2] was 96 % of control, the T/C [3] was 96 % of control and the T/C [4] was 93 % of control.

With N#CCC(=O)NCc1cnccn1 the T/C (dose: 50.0 mg/kg/injection, schedule: Q01DX005 (ip), vehicle: saline) was 110 % of control, the T/C (dose: 100.0 mg/kg/injection, schedule: Q01DX005 (ip), vehicle: saline) was 104 % of control and the T/C (dose: 100.0 mg/kg/injection, schedule: Q04DX003 (ip), vehicle: saline) was 103 % of control. The T/C (dose: 200.0 mg/kg/injection, schedule: Q01DX005 (ip), vehicle: saline) was 105 % of control, the T/C (dose: 200.0 mg/kg/injection, schedule: Q04DX003 (ip), vehicle: saline) was 103 % of control and the T/C (dose: 400.0 mg/kg/injection, schedule: Q01DX005 (ip), vehicle: saline) was 105 % of control. For the same compound, the T/C (dose: 400.0 mg/kg/injection, schedule: Q04DX003 (ip), vehicle: saline) was 101 % of control.

With O=C(c1ccccc1)c1c(-c2ccccc2)c(-c2ccccc2)n(-c2ccccc2)c1C(=O)c1ccccc1 the T/C (dose: 22.2 mg/kg/injection, schedule: Q01DX001 (ip), vehicle: carboxymethylcellulose (CMC)) was 94 % of control and 96 % of control, the T/C (dose: 33.35 mg/kg/injection, schedule: Q01DX001 (ip), vehicle: carboxymethylcellulose (CMC)) was 91 % of control and the T/C [5] was 94 % of control. The T/C (dose: 75.0 mg/kg/injection, schedule: Q01DX001 (ip), vehicle: carboxymethylcellulose (CMC)) was 94 % of control.

For [Cl][Sb]([Cl])([c]1ccccc1)([c]1ccccc1)[c]1ccccc1, the T/C (dose: 12.5 mg/kg/injection, schedule: Q01DX009 (ip), vehicle: Klucel (hydroxypropylcellulose) (HPC)) was 95 % of control, the T/C (dose: 25.0 mg/kg/injection, schedule: Q01DX009 (ip), vehicle: Klucel (hydroxypropylcellulose) (HPC)) was 93 % of control and the T/C (dose: 25.0 mg/kg/injection, schedule: Q04DX002 (ip), vehicle: saline with Tween-80) was 93 % of control. For the same compound, the T/C [5] was 96 % of control, the T/C (dose: 50.0 mg/kg/injection, schedule: Q01DX009 (ip), vehicle: Klucel (hydroxypropylcellulose) (HPC)) was 102 % of control and 91 % of control and the T/C (dose: 50.0 mg/kg/injection, schedule: Q04DX002 (ip), vehicle: saline with Tween-80) was 97 % of control. The T/C (dose: 100.0 mg/kg/injection, schedule: Q01DX001 (ip), vehicle: carboxymethylcellulose (CMC)) was 96 % of control, the T/C [6] was 101 % of control and the T/C (dose: 100.0 mg/kg/injection, schedule: Q04DX003 (ip), vehicle: Klucel (hydroxypropylcellulose) (HPC)) was 102 % of control. For the same compound, the T/C (dose: 200.0 mg/kg/injection, schedule: Q01DX001 (ip), vehicle: carboxymethylcellulose (CMC)) was 114 % of control, the T/C (dose: 200.0 mg/kg/injection, schedule: Q04DX003 (ip), vehicle: Klucel (hydroxypropylcellulose) (HPC)) was 96 % of control and the T/C (dose: 400.0 mg/kg/injection, schedule: Q01DX001 (ip), vehicle: carboxymethylcellulose (CMC)) was 93 % of control. The T/C (dose: 400.0 mg/kg/injection, schedule: Q04DX003 (ip), vehicle: Klucel (hydroxypropylcellulose) (HPC)) was 105 % of control.

NC(=S)NN=C1CCC1 was tested, and the T/C (dose: 50.0 mg/kg/injection, schedule: Q01DX001 (ip), vehicle: saline) was 98 % of control and the T/C [7] was 93 % of control and 91 % of control.

In the case of COC(=O)C1(C)COP(=O)(O)OC1 (stereo not given) (tested in a mixture with another compound), the T/C [7] is reported as 91 % of control and 107 % of control and 100 % of control, the T/C (dose: 200.0 mg/kg/injection, schedule: Q01DX001 (ip), vehicle: saline) is reported as 94 % of control and 96 % of control and 97 % of control and the T/C (dose: 400.0 mg/kg/injection, schedule: Q01DX001 (ip), vehicle: saline) is reported as 89 % of control and 105 % of control and 107 % of control.

For CC(C)Oc1ccc(CC(N)C(=O)O)cc1N(CCCl)CCCl (stereo not given), the T/C (dose: 0.44 mg/kg/injection, schedule: Q01DX009 (ip), vehicle: carboxymethylcellulose (CMC)) was 108 % of control, the T/C (dose: 0.5 mg/kg/injection, schedule: Q01DX009 (ip), vehicle: saline) was 120 % of control and the T/C (dose: 0.6 mg/kg/injection, schedule: Q01DX009 (ip), vehicle: carboxymethylcellulose (CMC)) was 121 % of control. For the same compound, the T/C (dose: 0.66 mg/kg/injection, schedule: Q01DX009 (ip), vehicle: carboxymethylcellulose (CMC)) was 111 % of control, the T/C (dose: 1.0 mg/kg/injection, schedule: Q01DX009 (ip), vehicle: carboxymethylcellulose (CMC)) was 124 % of control and the T/C (dose: 1.0 mg/kg/injection, schedule: Q01DX009 (ip), vehicle: saline) was 114 % of control. For the same compound, the T/C (dose: 1.5 mg/kg/injection, schedule: Q01DX001 (ip), vehicle: carboxymethylcellulose (CMC)) was 108 % of control, the T/C (dose: 2.0 mg/kg/injection, schedule: Q01DX009 (ip), vehicle: saline) was 117 % of control and the T/C (dose: 2.2 mg/kg/injection, schedule: Q01DX001 (ip), vehicle: carboxymethylcellulose (CMC)) was 114 % of control. The T/C (dose: 3.3 mg/kg/injection, schedule: Q01DX001 (ip), vehicle: carboxymethylcellulose (CMC)) was 119 % of control, the T/C (dose: 3.3 mg/kg/injection, schedule: Q01DX009 (ip), vehicle: carboxymethylcellulose (CMC)) was 158 % of control and the T/C (dose: 5.0 mg/kg/injection, schedule: Q01DX001 (ip), vehicle: carboxymethylcellulose (CMC)) was 114 % of control. The T/C (dose: 5.0 mg/kg/injection, schedule: Q01DX001 (ip), vehicle: saline with Tween-80) was 116 % of control, the T/C (dose: 5.0 mg/kg/injection, schedule: Q01DX009 (ip), vehicle: carboxymethylcellulose (CMC)) was 164 % of control and 166 % of control and the T/C (dose: 7.5 mg/kg/injection, schedule: Q01DX001 (ip), vehicle: saline with Tween-80) was 116 % of control. The T/C (dose: 7.5 mg/kg/injection, schedule: Q01DX009 (ip), vehicle: carboxymethylcellulose (CMC)) was 205 % of control, the T/C (dose: 10.0 mg/kg/injection, schedule: Q01DX001 (ip), vehicle: saline with Tween-80) was 116 % of control and the T/C (dose: 10.0 mg/kg/injection, schedule: Q01DX009 (ip), vehicle: carboxymethylcellulose (CMC)) was 213 % of control. For the same compound, the T/C (dose: 15.0 mg/kg/injection, schedule: Q01DX001 (ip), vehicle: carboxymethylcellulose (CMC)) was 124 % of control, the T/C (dose: 15.0 mg/kg/injection, schedule: Q01DX009 (ip), vehicle: carboxymethylcellulose (CMC)) was 123 % of control and the T/C (dose: 25.0 mg/kg/injection, schedule: Q01DX001 (ip), vehicle: Klucel (hydroxypropylcellulose) (HPC)) was 177 % of control. For the same compound, the T/C (dose: 30.0 mg/kg/injection, schedule: Q01DX009 (ip), vehicle: saline) was 90 % of control.

Cc1ccc(NC(=O)Nc2ccccc2F)cc1Cl was tested, and the T/C (dose: 100.0 mg/kg/injection, schedule: Q01DX009 (ip), vehicle: Klucel (hydroxypropylcellulose) (HPC)) was 111 % of control, the T/C (dose: 200.0 mg/kg/injection, schedule: Q01DX009 (ip), vehicle: Klucel (hydroxypropylcellulose) (HPC)) was 97 % of control and the T/C (dose: 400.0 mg/kg/injection, schedule: Q01DX009 (ip), vehicle: Klucel (hydroxypropylcellulose) (HPC)) was 92 % of control.

For CC(C)CN(CC(C)C)/N=C/c1cc([N+](=O)[O-])ccc1O, the T/C [6] was 97 % of control, the T/C (dose: 200.0 mg/kg/injection, schedule: Q04DX002 (ip), vehicle: saline with Tween-80) was 91 % of control and the T/C (dose: 400.0 mg/kg/injection, schedule: Q04DX002 (ip), vehicle: saline with Tween-80) was 87 % of control.
